Data on 2 molecules can be found in patent US20230129258A1, “HETEROTANDEM BICYCLIC PEPTIDE COMPLEXES” (BicycleTx Limited, priority 2019, published 2023).

Data set [1] can be described thus: Pharmacokinetics in SD rats. Format: in vivo. The conditions noted are these: for half-life: iv. A digest of the protocol: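 Male SD rats received the heterotandem Bicycle complex IV bolus or 15-min IV infusion in 25 mM histidine HCl, 10% sucrose pH 7. Serial K2-EDTA plasma analysed by LC-MS/MS (Orbitrap, positive mode); parameters from non-compartmental analysis.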

In data set [2] the test system is CT26 #7 tumor tissue T cells. The experiment in a line: Flow cytometry of T cells in CT26 #7 tumor tissue 1 h after last Q3D dose. The data set is classed as in vivo, BALB/c-hCD137 mice. To be noted: 5 mg/kg ip Q3D, 1 h after 6th dose. Here is the method: 1 hour after the last vehicle or BCY11863 dose the […] bearing mice were sacrificed and tumors were harvested, processed for single cell suspensions and stained for flow cytometry analysis for total T cells (CD45+CD3+), CD8+ T cells (CD45+CD3+CD8+), CD4+ T cells (CD45+CD3+CD4+) and regulatory T cells (Tregs; CD45+CD3+CD4+Foxp3+).
Background: Flow cytometry measures light scatter and fluorescence of single cells or particles in a stream.

Data set [3] deals with MC38 #13 tumors. The data set can be described thus: Re-inoculation of complete responders with MC38 #13 cells (immunogenic memory). The data set is classed as in vivo, C57BL/6J-hCD137 mice. The conditions noted are these: re-inoculated day 69 with 1x10^6 MC38 #13 cells; 22 days observation. The source says:
On day 69, 5 animals that had responded completely to BCY11863 treatment were re-inoculated with 1×10^6 MC38 #13-cells. A cohort of 5 naïve C57BL/6J-hCD137 female mice were inoculated with 1×10^6 MC38 #13-cells as a control.

The test system of data set [4] is MC38 #13 tumors. The data set can be described thus: Anti-tumor activity in syngeneic Nectin-4 overexpressing MC38 tumor model (MC38 #13). The conditions noted are these: for complete tumor responses: day 15; for complete responders: day 52, IV. Format: in vivo, C57BL/6J-hCD137 mice. The method, then:
6-8 weeks old C57BL/6J-hCD137 female mice were inoculated in the flank with 1×10^6 syngeneic Nectin-4 overexpressing MC38 cells (MC38 #13). When tumors reached 72 mm^3 size on average, mice were randomized to receive vehicle or BCY11863 (intraperitoneal administration). BCY11863 was administered (n=6 mice/treatment cohort) at either 1 mg/kg or 10 mg/kg either daily (QD) or every three days (Q3D). QD dosed mice received 16 doses of BCY11863 and Q3D dosed mice received […] of BCY11863. Tumor growth was monitored by caliper measurements until day 69 after treatment initiation. […] By day 48, 22 out of 24 BCY11863-treated animals had responded to the treatment completely and had no palpable tumors remaining.
6-8 week old female C57BL/6J-hCD137 mice [B-hTNFRSF9(CD137) mice; Biocytogen] were implanted subcutaneously with 1×10^6 MC38 #13 (MC38 cells engineered to overexpress murine Nectin-4) cells. Mice were randomized into treatment groups (n=6/cohort) when average tumor volumes reached around 95 mm^3 and were treated with a weekly dose of vehicle (25 mM histidine, 10% sucrose, pH7) or 10 mg/kg BCY11863 with two different dosing schedules for two dosing cycles (5 mg/kg BCY11863 at 0 h and 24 h on DO and D7, or 10 mg/kg at 0 h on DO and D7). All treatments were administered intravenously (IV). Tumor growth was monitored until Day 15 from treatment initiation.
At 3 weekly doses of 3, 10 and 30 mg/kg with dose fractionated weekly, biweekly and daily 6-8 week old female C57BL/6J-hCD137 mice [B-hTNFRSF9(CD137) mice; Biocytogen] were implanted subcutaneously with 1×10^6 MC38 #13 (MC38 cells engineered to overexpress murine Nectin-4) cells. Mice were randomized into treatment groups (n=6/cohort) when average tumor volumes reached around 107 mm^3 and were treated with 21 daily doses of vehicle (25 mM histidine, 10% sucrose, pH7). BCY11863 treatment was done at three different total dose levels (3, 10 and 30 mg/kg total weekly dose) fractionated in three different schedules (QD: daily; BIW: twice a week or QW: weekly). Different BCY11863 treatment cohorts received either 21 daily doses (0.43, 1.4 or 4.3 mg/kg), 6 twice weekly doses (1.5, 5 or 15 mg/kg) or 3 weekly doses (3, 10 or 30 mg/kg). All treatments were administered intravenously (IV). Tumor growth was monitored until tumor reached volumes over 2000 mm^3 or until 31 days after treatment initiation. Complete responders (animals with no palpable tumors) were followed until D52.

In the next data set the target is T1, mouse Nectin-4 (Mus musculus, UniProt Q8R007).
T1 sequence (Q8R007 31-347 limits assumed): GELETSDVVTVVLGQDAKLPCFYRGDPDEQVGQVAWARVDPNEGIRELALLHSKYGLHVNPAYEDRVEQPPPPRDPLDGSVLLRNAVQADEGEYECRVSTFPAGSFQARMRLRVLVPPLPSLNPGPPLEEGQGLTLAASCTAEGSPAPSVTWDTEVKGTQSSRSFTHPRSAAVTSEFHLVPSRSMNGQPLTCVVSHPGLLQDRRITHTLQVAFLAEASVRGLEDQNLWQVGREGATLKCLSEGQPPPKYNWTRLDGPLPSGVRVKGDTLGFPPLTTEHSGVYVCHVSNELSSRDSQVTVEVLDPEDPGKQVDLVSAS
The data set can be described thus: SPR direct binding to biotinylated Nectin-4 extracellular domain, mouse. An excerpt:
The binding of BCY11863 to its primary target Nectin-4 and CD137 was characterized using surface plasmon resonance (SPR).

A word on the Vdss: it is a proportionality between amount in the body and measured concentration, not a real space. Usually bioavailability stands for the share of a dose that reaches the circulation, judged against a reference dose that is usually intravenous. A higher bioavailability goes with good availability. As a reminder, the Kd is a measure of binding affinity in units of concentration. Low values mean higher affinity, high ones lower affinity.

“Also recorded” adds a separate entry of the source. Like-named read-outs stand apart in the source and are kept apart here. Starred links: 1 amine or outer side, 2 acyl side, 3 side chain; linkers in the order of their positions; H or OH if unused. Positions of bridges follow the written chain, without caps; N, C: chain ends. Non-standard residues stand in square brackets, D forms with d. Chains are numbered I, II in the order given. X1 = O=C(CCOCCOCCOCCN(CCOCCOCCOCCn1cc(CCC(=O)[*:2])nn1)CCOCCOCCOCCn1cc(CCC(=O)[*:3])nn1)[*:1]; TATA = O=C(CC[*:1])N1CN(C(=O)CC[*:2])CN(C(=O)CC[*:3])C1; d1Nal = N[C@H](Cc1cccc2ccccc12)C(=O)O; Hyp = O=C(O)[C@@H]1C[C@@H](O)CN1; hArg = N=C(N)NCCCC[C@H](N)C(=O)O; tBuAla = CC(C)(C)C[C@H](N)C(=O)O; Nle = CCCC[C@H](N)C(=O)O Some results are limits rather than exact numbers.

“I: A[hArg]DC[Hyp]LVNPLCLEP[d1Nal]WTC-NH2 / II: Ac-C[tBuAla]PE[dK]PYCFADPY[Nle]CA-NH2 / III: Ac-C[tBuAla]PE[dK]PYCFADPY[Nle]CA-NH2 (linker I:4-I:11-I:18, II:1-II:8-II:15, III:1-III:8-III:15 via TATA; linker I:N-II:5-III:5 via X1) [BCY13272]” returned a terminal half life in data set [1] (3.6 mg/kg IV infusion (15 min), n=3) of 2.9 h. Further, the half-life in data set [1] (male, SD, rat, plasma, 3.6 mg/kg, 3.6 mg/kg IV infusion (15 min), n=3, read-out: terminal half life (converted)) was 2.5 h; in data set [1] (male, SD, rat, plasma, IV Inf (15 minutes), read-out: T1/2 (converted)), 2.5 h. In data set [1] (male, SD, rat, plasma, 3.6 mg/kg IV infusion (15 min), n=3, read-out: clearance), the clearance was 7.5 mL/min/kg. The Vd in data set [1] (male, SD, rat, plasma, 3.6 mg/kg IV infusion (15 min), n=3, read-out: volume of distribution at steady state (Vdss)) is 1 L/kg; in data set [1] (male, SD, rat, plasma, IV Inf (15 minutes), read-out: Vdss), 1 L/kg.
As to `CCCC[C@@H]1NC(=O)[C@H](Cc2ccc(O)cc2)NC(=O)[C@@H]2CCCN2C(=O)[C@H](CC(=O)O)NC(=O)[C@H](C)NC(=O)[C@H](Cc2ccccc2)NC(=O)[C@@H]2CSCCC(=O)N3CN(CN(C3)C(=O)CCSC[C@@H](C(=O)N[C@@H](C)C(N)=O)NC1=O)C(=O)CCSC[C@H](NC(C)=O)C(=O)N[C@@H](CC(C)(C)C)C(=O)N1CCC[C@H]1C(=O)N[C@@H](CCC(=O)O)C(=O)N[C@H](CCCCNC(=O)CCc1cn(CCOCCOCCOCCN(CCOCCOCCOCCC(=O)N[C@H]3CSCCC(=O)N4CN5CN(C4)C(=O)CCSC[C@H](NC(=O)[C@@H](CC(=O)O)NC(=O)[C@H](Cc4cccc6ccccc46)NC(=O)[C@@H]4CCCN4C3=O)C(=O)N[C@@H](CCSC)C(=O)N[C@@H](CCCCNC(=N)N)C(=O)N[C@@H](CC(=O)O)C(=O)N[C@@H](Cc3c[nH]c4ccccc34)C(=O)N[C@@H](CO)C(=O)N[C@@H]([C@@H](C)O)C(=O)N3CCC[C@H]3C(=O)N3C[C@H](O)C[C@H]3C(=O)N[C@@H](Cc3c[nH]c4ccccc34)C(=O)N[C@H](C(N)=O)CSCCC5=O)CCOCCOCCOCCn3cc(CCC(=O)NCCCC[C@H]4NC(=O)[C@H](CCC(=O)O)NC(=O)[C@@H]5CCCN5C(=O)[C@H](CC(C)(C)C)NC(=O)[C@@H](NC(C)=O)CSCCC(=O)N5CN6CN(C5)C(=O)CCSC[C@H](NC(=O)[C@H](Cc5ccc(O)cc5)NC(=O)[C@@H]5CCCN5C4=O)C(=O)N[C@@H](Cc4ccccc4)C(=O)N[C@@H](C)C(=O)N[C@@H](CC(=O)O)C(=O)N4CCC[C@H]4C(=O)N[C@@H](Cc4ccc(O)cc4)C(=O)N[C@@H](CCCC)C(=O)N[C@H](C(=O)N[C@@H](C)C(N)=O)CSCCC6=O)nn3)nn1)C(=O)N1CCC[C@H]1C(=O)N[C@@H](Cc1ccc(O)cc1)C(=O)N2` [BCY11863], the “CD8+ T cells in tumor” value in data set [2] (p<0.0001) was “significant increase”. Moreover, in data set [2] (p<0.0001), the “total T cells (CD45+CD3+) in tumor” value is reported as “significant increase”. The “CD8+ T cell/Treg ratio in tumor” value in data set [2] (p<0.05) is “significant increase”. The “tumor development after re-inoculation of complete responders” value in the data set on MC38 #13 tumors [3] is “none of the CR mice developed tumors; also recorded: none of the inoculated complete responder mice developed tumors”. The tumor growth entry in the data set with MC38 #13 tumors [4] (1 or 10 mg/kg, QD or Q3D, ip, p<0.05 vs vehicle, 2 cohorts by day 7, all by day 14) was “significant reduction”. Also, in the data set with MC38 #13 tumors [4] (by day 48, all cohorts, 1 or 10 mg/kg, QD or Q3D, ip), the “animals responded completely, no palpable tumors” value is given as 22 out of 24. Further, the complete tumor responses with MC38 #13 tumors [4] (5 mg/kg at 0 h and 24 h on D0 and D7, IV) was 4 out of 6; with MC38 #13 tumors [4] (10 mg/kg at 0 h on D0 and D7, IV) it was “one out of 6”. For the same molecule, the complete responders in the data set with MC38 #13 tumors [4] (5 mg/kg BIW) is 6/6; in the data set with MC38 #13 tumors [4] (BIW (1.5, 5 or 15 mg/kg)), 15/18; in the data set on MC38 #13 tumors [4] (QD (0.43, 1.4 or 4.3 mg/kg)), 12/18; with MC38 #13 tumors [4] (QW (3, 10 or 30 mg/kg)) it was 6/18. Besides, the “Clp” value in data set [1] (100 mg/kg BCY11863 IV) turned out to be 13 mL/min/kg. In data set [1] (100 mg/kg BCY11863 IV), the “Vdss” value worked out at 2.3 L/kg. Also, the “fraction metabolized to BCY15155” value in data set [1] (IV administration of BCY11863, 100 mg/kg) is on record as < 1%. Besides, the “bioavailability from SC dosing” value in data set [1] (SC dosing) is “high”. Moreover, in data set [1] (Table 6B), the “clearance (in words)” value was “low clearance molecule”. The “volume of distribution (in words)” value in data set [1] (Table 6B) is reported as “volume of distribution larger than plasma volume”. In data set [1] (first 24 h, IV BCY11863, 100 mg/kg), the “conversion to BCY14602” value was “No significant conversion”. Also, the half-life in data set [1] (male, SD, rat, plasma, 2 mg/kg, 2 mg/kg IV, n=3, read-out: terminal half life (converted)) was 4.1 h. Also, the clearance came out at 7.7 mL/min/kg in data set [1] (male, SD, rat, plasma, 2 mg/kg IV, n=3, read-out: clearance); 7.7 mL/min/kg in data set [1] (male, rat, plasma, SD rats, 1.9 mg/kg IV Bolus, read-out: Clp); 9.3 mL/min/kg in data set [1] (male, rat, plasma, SD rats, 3.2 mg/kg IV Inf (15 min), read-out: Clp). Further, the Vd was found to be 1.6 L/kg in data set [1] (male, SD, rat, plasma, 2 mg/kg IV, n=3, read-out: volume of distribution at steady state (Vdss)); 1.6 L/kg in data set [1] (male, rat, plasma, SD rats, 1.9 mg/kg IV Bolus, read-out: Vdss); 1.3 L/kg in data set [1] (male, rat, plasma, SD rats, 3.2 mg/kg IV Inf (15 min), read-out: Vdss). Also, the bioavailability in data set [1] (male, rat, plasma, SD rats, 6.3 mg/kg SC) is 95%. For the same molecule, the Kd is 5 to 27 nM on mouse Nectin-4 (KD, biotinylated ECD captured on streptavidin chip) and 4.6 ± 2.1 nM on mouse Nectin-4 (SPR KD Mouse (25° C.), Direct Binding, biotinylated Nectin-4 extracellular domain, 25° C.).
